A word on the IC50: it is the concentration that inhibits the measured activity by half.

41 compounds from patent US20240043403A1, “HETEROARYL CARBOXAMIDE COMPOUND” (Astellas Pharma Inc., priority 2020, published 2024) can be followed below.

Where a name gives a salt, the structure may show the parent alone.

The target of one test is human recombinant DGK ξ (Homo sapiens (Human), UniProt Q13574). Nature of the test: Evaluation of DGK ξ inhibitory effect (ADP-Glo Kinase Assay). It counts as biochemical. The following applies: ADP-Glo luminescence. How it is done: Test Example 1. Evaluation of DGK ξ Inhibitory Effect
Chain of human recombinant DGK ξ (Q13574 whole entry): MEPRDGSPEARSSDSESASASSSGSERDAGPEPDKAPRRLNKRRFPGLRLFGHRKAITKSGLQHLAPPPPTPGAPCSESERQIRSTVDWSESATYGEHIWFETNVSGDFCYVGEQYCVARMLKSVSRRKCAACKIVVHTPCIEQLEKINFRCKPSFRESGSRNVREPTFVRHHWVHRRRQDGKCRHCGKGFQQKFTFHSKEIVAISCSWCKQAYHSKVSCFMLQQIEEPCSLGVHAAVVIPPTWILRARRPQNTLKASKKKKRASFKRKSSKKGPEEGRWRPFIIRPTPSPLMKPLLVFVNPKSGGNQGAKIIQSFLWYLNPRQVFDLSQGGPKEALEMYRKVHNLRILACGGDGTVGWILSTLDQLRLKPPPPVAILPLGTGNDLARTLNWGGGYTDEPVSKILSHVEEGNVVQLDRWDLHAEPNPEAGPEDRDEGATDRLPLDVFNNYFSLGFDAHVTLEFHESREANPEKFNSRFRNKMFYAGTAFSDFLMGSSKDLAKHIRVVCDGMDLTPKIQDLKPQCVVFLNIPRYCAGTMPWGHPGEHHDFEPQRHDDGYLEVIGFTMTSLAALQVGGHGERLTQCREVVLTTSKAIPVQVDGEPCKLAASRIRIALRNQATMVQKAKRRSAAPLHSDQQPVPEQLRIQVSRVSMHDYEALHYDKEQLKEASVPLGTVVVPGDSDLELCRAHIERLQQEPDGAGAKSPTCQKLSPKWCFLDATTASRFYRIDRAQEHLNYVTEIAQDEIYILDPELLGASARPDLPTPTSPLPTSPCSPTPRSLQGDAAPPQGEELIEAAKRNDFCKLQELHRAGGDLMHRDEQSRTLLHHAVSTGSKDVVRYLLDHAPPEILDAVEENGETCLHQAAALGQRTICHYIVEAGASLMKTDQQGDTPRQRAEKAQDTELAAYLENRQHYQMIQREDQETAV
The inhibitory effect of a test compound on human recombinant DGK ξ (Cama Biosciences, Inc., 12-410-20N) was examined by the following method in which detection is performed with ADP-Glo™ Kinase Assay (Promega Corporation).
To a 384-well plate (Greiner Bio-One Co., Ltd.), 3 μL of a DGK ξ enzyme dissolved in an assay buffer (40 mM Tris-HCl pH 7.5, 10 mM MgCl2, 1 mM dithiothreitol (DTT) and 0.1 mg/mL bovine serum albumin (BSA)) (90 ng/mL) was added, and 3 μL of the test compound diluted with the same assay buffer was added so that an intended final concentration was obtained. The mixture was left standing at room temperature for 15 minutes, 3 μL of a substrate (150 μM 1-oleoyl-2-acetyl-sn-glycerol (Sigma-Aldrich Co. LLC), 480 μM phosphatidylserine (Avanti, Inc.) and 150 μM UltraPure-ATP (attached to ADP-Glo)) was then added, and the mixture was left standing at room temperature for 30 minutes to react. Thereafter, 3 μL of an ADP-Glo Reagent was added, and the mixture was left standing at room temperature for 40 minutes to stop the enzyme reaction. Further, 6 μL of a Kinase-Detection Reagent was added, the mixture was left standing at room temperature for 30 minutes, and the luminescence was then measured using ARVO X3 (PerkinElmer, Inc.). The half maximal inhibitory concentration (IC50) was calculated by Sigmoid-Emax model non-linear regression analysis, where the signal value in solvent treatment was set to 0% inhibition and the signal value without addition of the DGK ξ enzyme was set to 100% inhibition. […] In the table. Ex represents the number of each Example described below.
(ADP-Glo turns the ADP formed in a reaction into a luminescent signal.)
As for `CNC[C@H]1CN(c2c(NC(=O)c3ccn(-c4ccnnc4)n3)ccc(Oc3ccccc3F)c2C(F)(F)F)CCN1C` [Example 29, N-[4-(2-fluorophenoxy)-2-{(3S)-4-methyl-3-[(methylamino)methyl]piperazin-1-yl}-3-(trifluoromethyl)phenyl]-1-(pyridazin-4-yl)-1H-pyrazole-3-carboxamide], the IC50 is 10 nM.
In the case of `CNC[C@@H]1CN(c2c(NC(=O)c3ccn(-c4ccnnc4)n3)ccc(Oc3ccccc3F)c2C(F)(F)F)CCN1C` [Example 47], the IC50 came out at 6.7 nM.
Take `NC[C@]1(F)CCCN(c2c(NC(=O)c3ccn(-c4ccnnc4)n3)ccc(Oc3ccccc3F)c2C(F)(F)F)C1` [Example 45]: the IC50 came to 12 nM.
Turning to `CNC[C@H]1CN(c2c(NC(=O)c3coc(-c4ccnnc4)n3)ccc(Oc3ccccc3F)c2C(F)(F)F)CCN1C` [Example 22, N-[4-(2-fluorophenoxy)-2-{(3S)-4-methyl-3-[(methylamino)methyl]piperazin-yl}-3-(trifluoromethyl)phenyl]-2-(pyridazin-4-yl)-1,3-oxazole-4-carboxamide trihydrochloride], the IC50 was determined as 18 nM.
On the same count and under the same terms, then `CN1CCN(c2c(NC(=O)c3cccn(CC(F)F)c3=O)ccc(Oc3ccccc3F)c2C(F)(F)F)C[C@H]1CN` [Example 21], with 1100 nM; and `NC[C@@H]1CCCN(c2c(NC(=O)c3ccn(-c4ccnnc4)n3)ccc(Oc3ccccn3)c2C(F)(F)F)C1` [Example 61], with 46 nM.
On the same count and under the same terms, with `CNC[C@H]1CN(c2c(NC(=O)c3coc(-c4ccnnc4)n3)ccc(Oc3ccccc3Cl)c2Cl)CCN1C` [Example 93] the figure was 2.8 nM.
Still for that read-out and setting: then `CNC[C@H]1CN(c2c(NC(=O)c3coc(-c4ccnnc4)n3)ccc(Oc3ccccc3F)c2C2CC2)CCN1C` [Example 103], with 46 nM.
Consider `CN1CCN(c2c(NC(=O)c3coc(-c4ccnnc4)n3)ccc(Oc3ccccc3F)c2C(F)(F)F)C[C@H]1CN` [Example 55], for which the 50% inhibitory concentration (IC50) came to 12 nM.
In the case of `CN1CCN(c2c(NC(=O)c3ccn(CC(F)F)n3)ccc(Oc3ccccc3F)c2Cl)C[C@@H]1CN` [Example 112, N-{2-[(3S)-3-(aminomethyl)-4-methylpiperazin-1-yl]-3-chloro-4-(2-fluorophenoxy)phenyl}-1-(2,2-difluoroethyl)-1H-pyrazole-3-carboxamide], the IC50 was 52 nM.
Take `CNC[C@H]1CN(c2c(NC(=O)c3cc(C)n(-c4ccnnc4)n3)ccc(Oc3ccccc3F)c2C(F)(F)F)CCN1C` [Example 92]: the half-maximal inhibitory concentration (IC50) was found to be 92 nM.
Still for that read-out and setting: then `O=C(Nc1ccc(OC2CCC2)c(C(F)(F)F)c1-c1cnn(C2CCNCC2)c1)c1coc(-c2ccnnc2)n1` [Example 71], with 21 nM.
As to `CNC[C@H]1CN(c2c(NC(=O)c3ccn(-c4ccnnc4)n3)ccc(OC3CCC3)c2C(F)(F)F)CCN1C` [Example 99], the IC50 was found to be 33 nM.
Still for that read-out and setting: then `CN1CCN(c2c(NC(=O)c3cccn(CC(F)F)c3=O)ccc(Oc3ccccc3F)c2C(F)(F)F)C[C@@H]1CN` [Example 16], with 73 nM; and `NCCOc1cc(-c2c(NC(=O)c3ccn(-c4ccnnc4)n3)ccc(OC3CCC3)c2C(F)(F)F)ccn1` [Example 79], with 7.8 nM.
The same measure, in the same setting: then `Cc1cc(C(=O)Nc2ccc(Oc3ccccc3F)c(C(F)(F)F)c2N2CCC[C@@H](CN)C2)nn1-c1ccnnc1` [Example 37], with 23 nM; and `CNC[C@H]1CN(c2c(NC(=O)c3ccn(-c4ccnnc4)n3)ccc(-c3ccccc3F)c2C(F)(F)F)CCN1C` [Example 59], with 11 nM.
Regarding `NC[C@@H]1CCCN(c2c(NC(=O)c3ccn(CC(F)F)n3)ccc(OC3CC3)c2C(F)(F)F)C1` [Example 5], the IC50 was 330 nM.
Consider `N[C@@H]1CCN2CCN(c3c(NC(=O)c4coc(-c5ccnnc5)n4)ccc(OC4CCC4)c3C(F)(F)F)C[C@@H]12` [Example 75], for which the IC50 was found to be 69 nM.
With `CNC[C@H]1CN(c2c(NC(=O)c3coc(-c4ccnnc4)n3)ccc(Oc3ccccc3)c2C(F)(F)F)CCN1C` [Example 105], the IC50 was 46 nM.
On the same count and under the same terms, with `CNC[C@H]1CN(c2c(NC(=O)c3ccn(-c4ccnnc4)n3)cc(F)c(Oc3ccccc3)c2F)CCN1C` [Example 108] the figure was 8.9 nM; with `CNC[C@H]1CN(c2c(NC(=O)c3ccn(CC(F)F)n3)ccc(Oc3ccccc3F)c2F)CCN1C` [Example 25], 73 nM; with `NC[C@@H]1CCCN(c2c(NC(=O)c3ccn(-c4ccnnc4)n3)ccc(Oc3ccccc3)c2C(F)(F)F)C1` [Example 31], 23 nM.
With `O=C(Nc1ccc(Oc2ccccc2F)c(C(F)(F)F)c1N1CCC[C@@H](CNC2CC2)C1)c1ccn(-c2ccnnc2)n1` [Example 36], the concentration for half-maximal inhibition (IC50) worked out at 55 nM.
The same measure, in the same setting: with `N[C@H]1CCN2CCN(c3c(NC(=O)c4ccn(-c5ccnnc5)n4)ccc(Oc4ccccc4F)c3C(F)(F)F)C[C@H]12` [Example 84] the figure was 2.1 nM; with `CN[C@@H]1CCN2CCN(c3c(NC(=O)c4coc(-c5ccnnc5)n4)ccc(Oc4ccccc4)c3C(F)(F)F)C[C@@H]12` [Example 76], 7.6 nM; with `Cc1cc(C(=O)Nc2ccc(Oc3ccccc3Cl)c(C(F)(F)F)c2N2CCC[C@@H](CN)C2)nn1-c1ccnnc1` [Example 91], 25 nM.
Turning to `CNC[C@@H]1CN(c2c(NC(=O)c3ccn(-c4ccnnc4)n3)ccc(Oc3ccccc3F)c2C(F)(F)F)CCN1C` [Example 123, N-[4-(2-fluorophenoxy)-2-{(3R)-4-methyl-3-[(methylamino)methyl]piperazin1-yl}-3-(trifluoromethyl)phenyl]-1-(pyridazin-4-yl)-1H-pyrazole-3-carboxamide monobutanedioate], the IC50 is 4 nM.
Turning to `CNC[C@H]1CN(c2c(NC(=O)c3ccn(-c4ccnnc4)n3)ccc(Oc3ccc(F)cc3)c2C(F)(F)F)CCN1C` [Example 101], the IC50 amounted to 69 nM.
As to `NC[C@@H]1CCCN(c2c(NC(=O)c3ccn(-c4ccnnc4)n3)ccc(Oc3ccccc3F)c2C(F)(F)F)C1` [Example 34], the IC50 came out at 3.1 nM.
Consider `CNC[C@H]1CN(c2c(NC(=O)c3coc(-c4ccnnc4)n3)ccc(Oc3ccc(F)cc3)c2C(F)(F)F)CCN1C` [Example 102], for which the IC50 worked out at 210 nM.
Same read-out and setting: with `CN1CCN(c2c(NC(=O)c3ccn(-c4ccnnc4)n3)ccc(OC3CCCC3)c2C(F)(F)F)C[C@@H]1CN` [Example 40] the figure was 5.2 nM; with `NCCCn1cc(-c2c(NC(=O)c3coc(-c4ccnnc4)n3)ccc(OC3CCC3)c2C(F)(F)F)cn1` [Example 73], 43 nM; with `CNC[C@H]1CN(c2c(NC(=O)c3coc(-c4ccnnc4)n3)cc(F)c(Oc3ccccc3)c2F)CCN1C` [Example 106], 7.5 nM.
With `CN1CCN(c2c(NC(=O)c3coc(-c4ccnnc4)n3)ccc(Oc3ccc(F)cc3)c2C(F)(F)F)C[C@@H]1CN` [Example 53], the IC50 amounted to 29 nM.
`CNC[C@H]1CN(c2c(NC(=O)c3coc(-c4ccnnc4)n3)ccc(Oc3ccccc3F)c2Cl)CCN1C` [Example 98]: the IC50 was 7.5 nM.
`CNCCOc1cccc(-c2c(NC(=O)c3coc(-c4ccnnc4)n3)ccc(OC3CC3)c2C(F)(F)F)c1` [Example 66]: the 50% inhibitory concentration (IC50) turned out to be 180 nM.
Consider `CNCCOc1cc(-c2c(NC(=O)c3coc(-c4ccnnc4)n3)ccc(OC3CCC3)c2C(F)(F)F)ccn1` [Example 69], for which the 50% inhibitory concentration (IC50) amounted to 60 nM.
Take `O=C(Nc1ccc(Oc2ccccc2F)c(C(F)(F)F)c1N1CCC[C@@H](CNC2CC2)C1)c1ccn(CC(F)F)n1` [Example 10]: the IC50 is 93 nM.
Same read-out and setting: with `CN[C@@H]1CCN2CCN(c3c(NC(=O)c4coc(-c5ccnnc5)n4)ccc(Oc4ccccc4F)c3C(F)(F)F)C[C@@H]12` [Example 83] the figure was 3.5 nM; with `CN(C)[C@@H]1CCN2CCN(c3c(NC(=O)c4coc(-c5ccnnc5)n4)ccc(Oc4ccccc4F)c3C(F)(F)F)C[C@@H]12` [Example 120], 4.3 nM.

The subject of a further test is B16-F1 cells. Nature of the test: Evaluation of antitumor effect in syngeneic mouse model bearing mouse melanoma cell line B16-F1. It counts as in vivo. Particulars: po, 240 h, 0.03 mg/kg orally once daily for 10 days, C57BL/6J mice bearing B16-F1, read-out: Antitumor effect (relative tumor growth inhibition). Here is the method:
Test Example 3: Evaluation of Antitumor Effect in Syngeneic Mouse Model Bearing Mouse Melanoma Cell Line B16-F1
A cell suspension liquid prepared by suspending B16-F1 cells (ATCC, CRL-6323) in PBS at 2.0×10^6 cells/mL was subcutaneously inoculated into 5-week-old female mice (C57BL/6J from Charles River Laboratories Japan, Inc.) in a volume of 50 μL. 5 days after the inoculation, the mice were grouped in such a manner that there was substantially no difference in tumor volume between groups, and administration of the test compound was started. The test was conducted with a solvent group and a test compound administration group each having 10 mice. 0.5% methylcellulose (Shin-Etsu Chemical Co., Ltd.) was orally administered to the solvent group, and 0.5% methylcellulose mixed with the test compound was orally administered to the test compound administration group. The administration was performed for 10 days once daily, and the tumor diameter and the body weight were measured twice a week. The following expression was used for calculation of the tumor volume.
[tumor volume (mm^3)]=[tumor major diameter […]]×[tumor minor diameter (mm)]^2×0.5
The relative tumor growth inhibition (%) of the test compound was calculated, where the tumor volume of the solvent group immediately before the start of administration was set to 100% inhibition, and the tumor volume of the solvent group on the day after the last administration was set to 0% inhibition. […] In the table, Ex represents the number of each Example described below.
With `NC[C@]1(F)CCCN(c2c(NC(=O)c3ccn(-c4ccnnc4)n3)ccc(Oc3ccccc3F)c2C(F)(F)F)C1` [Example 45], the inhibition in vivo at 0.03 mg/kg worked out at 30%.

Still in this test, the particulars now being: po, 240 h, 0.3 mg/kg orally once daily for 10 days, C57BL/6J mice bearing B16-F1, read-out: Antitumor effect (relative tumor growth inhibition).
Take `CNC[C@H]1CN(c2c(NC(=O)c3ccn(-c4ccnnc4)n3)ccc(Oc3ccccc3F)c2C(F)(F)F)CCN1C` [Example 29, N-[4-(2-fluorophenoxy)-2-{(3S)-4-methyl-3-[(methylamino)methyl]piperazin-1-yl}-3-(trifluoromethyl)phenyl]-1-(pyridazin-4-yl)-1H-pyrazole-3-carboxamide]: the inhibition in vivo at 0.3 mg/kg turned out to be 41%.
`CNC[C@@H]1CN(c2c(NC(=O)c3ccn(-c4ccnnc4)n3)ccc(Oc3ccccc3F)c2C(F)(F)F)CCN1C` [Example 47]: the inhibition in vivo at 0.3 mg/kg is 42%.
